Experimental data reported in patent publication US4605614A, “Method for measuring plasmin” (Nitto Boseki Co., Ltd., priority 1981, dated 1986).

Experiments:
plasmin (pig) = plasmin (pig) (Sus scrofa, UniProt P06867); test: Km, Vmax and Vmax/Km of substrates for plasmin (pig); format: biochemical, Porcine (pig); settings: for Vmax (× 10^-7): TABLE 2, CHA substrates, plasmin (pig), 2,6-xylenol 615 nm; for Relative ratio: TABLE 2, V/Km of each sample divided by that of S2251 (so in the source)
Text: The substrates produced by the above examples were used in the measurement of plasmin as follows: The principle of this measurement comprises quantitatively analyzing the decomposition product p-nitroaniline or 3-carboxy-4-hydroxyaniline produced by the enzymatic hydrolysis, by measuring the absorbance (O.D.) directly at 405 nm in the case of p-nitroaniline and, in the case of the 3-carboxy-4-hydroxyaniline at 615 nm after condensing it with 2,6-xylenol in the presence of an oxidant to develop a color.
For the measurements of these constants, the following method is adopted:
The enzyme and the substrate are mixed in a buffer solution and subjected to the hydrolysis for 30 seconds. The concentration of the substrate [S] is changed and the enzyme concentration is maintained constant. By measuring the absorbance (O.D.), the initial velocity of the hydrolysis can be determined. Where 1/V is plotted as a function of 1/[S], there is obtained a Lineweaver and Burk's linea from which graph the Vmax and Km can be determined.

Thrombin (TH) = Thrombin (TH) (Bos taurus, UniProt P00735); format: biochemical, Cow; settings: TABLE 4, CHA substrates; So = 0.54; pH 8.4; 37° C., 10 minutes; 1.0 NIH/ml
Plasmin (PL) = Plasmin (PL) (Sus scrofa, UniProt P06867); format: biochemical, Pig; settings: TABLE 4, CHA substrates; So = 0.54; pH 7.4; 37° C., 10 minutes; 0.32 CU/ml
Experimental: (§1) (1) Substrate solution concentration: 35 mmole/liter H2 O
(§2) (2) Buffer: Tris-hydrochloric acid buffer 50 mmole/l, NaCl 150 mmole/l (0.875%) was employed, and the pH for reaction was as follows depending on the enzyme.
Plasmin Pig Sigma (U.S.A.)
(§3) 0.5 ml of the buffer solution and 0.05 ml of the enzyme reagent were taken into a silicon-treated hard glass test tube or a plastic test tube, and preheated in a constant temperature bath at 37° C. for 5 minutes. Thereafter, 0.1 ml of the substrate solution was added to effect the enzymatic reaction at 37° C. for 10 minutes. Exactly after 10 minutes, 2.5 ml of the reaction terminating solution or the terminating and color developing reagent solution was added to terminate the enzymatic reaction, and after allowing to stand at 25° C. for 10 minutes, the absorbance at 405 nm or 645 nm was measured, in which [drawing 49]

Kallikrein (KL) = Kallikrein (KL) (Sus scrofa, UniProt P00752); format: biochemical, Pig; settings: TABLE 4, CHA substrates; So = 0.54; pH 7.9; 37° C., 10 minutes; 1.0 BAEE-U/ml
Experimental: The specificities of the novelly synthesized substrates were tested by reacting them with various enzymes respectively.
as §1, §2
2,6-Xylenol 7.0 mmole+NaIO4 1.5 mmole/0.2N KOH
as §3

Factor-Xa (FXa) = Factor-Xa (FXa) (Bos taurus, UniProt P00743); format: biochemical, Cow; settings: TABLE 4, CHA substrates; So = 0.54; pH 8.4; 37° C., 10 minutes; 0.4 U/ml
Urokinase (UK) = Urokinase (UK) (Homo sapiens, UniProt P00749); format: biochemical; settings: TABLE 4, CHA substrates; So = 0.54; pH 8.2; 37° C., 10 minutes; 1000 IU/ml

Chain of Kallikrein (KL) (P00752 8-246): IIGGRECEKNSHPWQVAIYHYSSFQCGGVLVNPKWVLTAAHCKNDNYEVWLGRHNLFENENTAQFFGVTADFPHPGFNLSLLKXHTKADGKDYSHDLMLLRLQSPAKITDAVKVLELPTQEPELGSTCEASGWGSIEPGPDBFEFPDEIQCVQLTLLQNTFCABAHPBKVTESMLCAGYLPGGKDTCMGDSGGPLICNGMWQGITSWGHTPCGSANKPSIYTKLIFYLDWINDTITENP
Chain of Plasmin (PL) (P06867 97-809): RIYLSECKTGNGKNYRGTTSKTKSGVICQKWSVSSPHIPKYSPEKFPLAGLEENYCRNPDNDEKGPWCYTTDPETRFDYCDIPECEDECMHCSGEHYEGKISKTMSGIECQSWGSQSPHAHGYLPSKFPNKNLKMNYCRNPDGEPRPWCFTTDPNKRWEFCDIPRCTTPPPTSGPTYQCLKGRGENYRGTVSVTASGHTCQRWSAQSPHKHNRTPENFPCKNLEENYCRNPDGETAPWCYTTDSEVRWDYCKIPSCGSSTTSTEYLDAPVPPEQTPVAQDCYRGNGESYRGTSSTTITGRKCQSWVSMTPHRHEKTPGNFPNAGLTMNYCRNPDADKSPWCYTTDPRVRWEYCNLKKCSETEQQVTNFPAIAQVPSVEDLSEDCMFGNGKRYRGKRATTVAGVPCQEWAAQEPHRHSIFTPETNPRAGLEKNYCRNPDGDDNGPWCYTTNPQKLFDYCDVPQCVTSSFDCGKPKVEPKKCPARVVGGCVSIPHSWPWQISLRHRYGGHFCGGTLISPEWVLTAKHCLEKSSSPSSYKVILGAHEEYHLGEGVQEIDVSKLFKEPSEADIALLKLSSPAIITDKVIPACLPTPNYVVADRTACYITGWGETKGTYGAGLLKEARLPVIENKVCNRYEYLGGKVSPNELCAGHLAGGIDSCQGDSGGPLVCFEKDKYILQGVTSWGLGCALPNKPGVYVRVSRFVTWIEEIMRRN
Chain of plasmin (pig) (P06867 97-809): as above
Chain of Thrombin (TH) (P00735 44-625): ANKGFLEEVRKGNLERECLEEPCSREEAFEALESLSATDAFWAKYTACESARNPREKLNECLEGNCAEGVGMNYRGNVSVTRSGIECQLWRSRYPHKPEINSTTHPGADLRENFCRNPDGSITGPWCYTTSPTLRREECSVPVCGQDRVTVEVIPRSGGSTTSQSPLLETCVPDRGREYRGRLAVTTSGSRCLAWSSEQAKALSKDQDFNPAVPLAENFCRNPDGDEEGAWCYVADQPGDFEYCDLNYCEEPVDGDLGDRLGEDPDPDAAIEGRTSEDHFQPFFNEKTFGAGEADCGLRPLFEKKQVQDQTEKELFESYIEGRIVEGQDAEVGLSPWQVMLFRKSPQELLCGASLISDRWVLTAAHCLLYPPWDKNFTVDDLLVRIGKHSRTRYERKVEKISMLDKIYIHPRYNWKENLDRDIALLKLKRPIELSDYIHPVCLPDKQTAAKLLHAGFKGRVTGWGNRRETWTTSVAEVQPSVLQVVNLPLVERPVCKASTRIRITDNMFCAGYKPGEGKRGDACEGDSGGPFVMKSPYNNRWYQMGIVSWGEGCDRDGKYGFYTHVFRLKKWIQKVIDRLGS
Chain of Factor-Xa (FXa) (P00743 41-180): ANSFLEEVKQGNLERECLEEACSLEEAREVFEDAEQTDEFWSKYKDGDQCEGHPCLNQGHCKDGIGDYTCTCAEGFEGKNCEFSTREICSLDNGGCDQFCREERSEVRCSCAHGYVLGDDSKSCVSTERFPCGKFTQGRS
Chain of Factor-Xa (FXa) (P00743 234-492): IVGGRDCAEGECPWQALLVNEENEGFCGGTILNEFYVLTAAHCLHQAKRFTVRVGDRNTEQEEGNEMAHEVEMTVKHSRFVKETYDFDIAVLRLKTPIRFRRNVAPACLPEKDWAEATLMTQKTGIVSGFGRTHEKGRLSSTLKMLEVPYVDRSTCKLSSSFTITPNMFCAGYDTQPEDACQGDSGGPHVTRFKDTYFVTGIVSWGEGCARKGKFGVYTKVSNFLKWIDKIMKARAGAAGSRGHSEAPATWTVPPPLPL

SMILES	Vmax (× 10^-7) (plasmin (pig))	Relative ratio (plasmin (pig))	Selectivity TH, absorbance (O.D.) at 645 nm (Thrombin (TH))	Selectivity PL, absorbance (O.D.) at 645 nm (Plasmin (PL))	Selectivity KL, absorbance (O.D.) at 645 nm (Kallikrein (KL))	Selectivity FXa, absorbance (O.D.) at 645 nm (Factor-Xa (FXa))	Selectivity UK, absorbance (O.D.) at 645 nm (Urokinase (UK))
CC(C)C[C@H](NC(=O)[C@H](N)C(C)C)C(=O)N[C@@H](CCCCN)C(=O)Nc1ccc(O)c(C(=O)O)c1 [NPC-1, HD-ValLeuLysCHA.2HBr]	3.556 × 10^-7	1.000	0 O.D.	0.013 O.D.	0.002 O.D.	0.002 O.D.	0 O.D.
CC(C)[C@@H](N)C(=O)N[C@@H](Cc1ccccc1)C(=O)N[C@@H](CCCCN)C(=O)Nc1ccc(O)c(C(=O)O)c1 [NPC-2, HD-ValPheLysCHA.2HCl]	8.266 × 10^-7	11.811	0.002 O.D.	0.090 O.D.	0.006 O.D.	0.004 O.D.	0.002 O.D.
NCCCC[C@@H](N)C(=O)N[C@@H](Cc1ccccc1)C(=O)N[C@@H](CCCCN)C(=O)Nc1ccc(O)c(C(=O)O)c1 [NPC-3]	7.506 × 10^-7	30.432	0 O.D.	0.096 O.D.	0.004 O.D.	0.002 O.D.	0 O.D.
CC(=O)NCCCC[C@@H](N)C(=O)N[C@@H](Cc1ccccc1)C(=O)N[C@@H](CCCCN)C(=O)Nc1ccc(O)c(C(=O)O)c1 [NPC-4, HD-Lys(AC)PheLysCHA.2HCl]	10.940 × 10^-7	39.351	0.001 O.D.	0.144 O.D.	0.006 O.D.	0.002 O.D.	0 O.D.
Cc1ccc(S(=O)(=O)NCCCC[C@H](N)C(=O)N[C@@H](Cc2ccccc2)C(=O)N[C@@H](CCCCN)C(=O)Nc2ccc(O)c(C(=O)O)c2)cc1 [NPC-5, HL-Lys(Tos)PheLysCHA.2HCl]	3.159 × 10^-7	9.739	0 O.D.	0.051 O.D.	0.001 O.D.	0.002 O.D.	0 O.D.
Cc1ccc(C(=O)NCCCC[C@@H](N)C(=O)N[C@@H](Cc2ccccc2)C(=O)N[C@@H](CCCCN)C(=O)Nc2ccc(O)c(C(=O)O)c2)cc1 [NPC-6, HD-Lys(Toc)PheLysCHA.2HCl]	11.670 × 10^-7	137.973	0 O.D.	0.147 O.D.	0.007 O.D.	0.001 O.D.	0 O.D.
Cc1ccc(S(=O)(=O)NCCCC[C@@H](N)C(=O)N[C@@H](Cc2ccccc2)C(=O)N[C@@H](CCCCN)C(=O)Nc2ccc(O)c(C(=O)O)c2)cc1 [NPC-7, 2HCl.H-D-Lys(ToS)-L-Phe-L-Lys-CHA]	29.417 × 10^-7	128.468	0 O.D.	0.420 O.D.	0.007 O.D.	0.001 O.D.	0 O.D.
NCCCC[C@H](NC(=O)[C@H](Cc1ccccc1)NC(=O)[C@H](N)CCCCNS(=O)(=O)c1ccc2ccccc2c1)C(=O)Nc1ccc(O)c(C(=O)O)c1 [NPC-8, HD-Lys(NaS)PheLysCHA.2HCl]	30.814 × 10^-7	154.748	0 O.D.	0.498 O.D.	0.011 O.D.	0.002 O.D.	0.002 O.D.
NCCCC[C@H](NC(=O)[C@H](Cc1ccccc1)NC(=O)[C@H](N)CCCCNC(=O)c1ccc2ccccc2c1)C(=O)Nc1ccc(O)c(C(=O)O)c1 [NPC-9, HD-Lys(NaC)PheLysCHA.2HCl]	13.827 × 10^-7	38.270	0 O.D.	0.120 O.D.	0.027 O.D.	0.001 O.D.	0 O.D.
Cc1cc(C)c(S(=O)(=O)NCCCC[C@@H](N)C(=O)N[C@@H](Cc2ccccc2)C(=O)N[C@@H](CCCCN)C(=O)Nc2ccc(O)c(C(=O)O)c2)c(C)c1 [NPC-10, HD-Lys(Mst)PheLysCHA.2HCl]	28.445 × 10^-7	94.369	0 O.D.	0.344 O.D.	0.010 O.D.	0.002 O.D.	0.001 O.D.
Cc1ccc(S(=O)(=O)Oc2ccc(C[C@@H](N)C(=O)N[C@@H](Cc3ccccc3)C(=O)N[C@@H](CCCCN)C(=O)Nc3ccc(O)c(C(=O)O)c3)cc2)cc1 [NPC-11, HD-Tyr(Tos)PheLysCHA.2HCl]	17.018 × 10^-7	99.532	0.001 O.D.	0.277 O.D.	0.012 O.D.	0.003 O.D.	0.003 O.D.
Cc1ccc(S(=O)(=O)NCCCC[C@@H](N)C(=O)N[C@@H](CC(C)C)C(=O)N[C@@H](CCCCN)C(=O)Nc2ccc(O)c(C(=O)O)c2)cc1 [NPC-12, HD-Lys(Tos)LeuLysCHA.2HBr]	25.679 × 10^-7	23.135	0.001 O.D.	0.051 O.D.	0.007 O.D.	0.002 O.D.	0.001 O.D.
Cc1ccc(S(=O)(=O)Oc2ccc(C[C@@H](N)C(=O)N[C@@H](CC(C)C)C(=O)N[C@@H](CCCCN)C(=O)Nc3ccc(O)c(C(=O)O)c3)cc2)cc1 [NPC-13, HD-Tyr(Tos)LeuLysCHA.2HCl]	17.991 × 10^-7	11.225	0.002 O.D.	0.041 O.D.	0.004 O.D.	0.001 O.D.	0.001 O.D.
NCCCC[C@H](NC(=O)[C@H](Cc1ccccc1)NC(=O)[C@H](N)CCCCNC(=O)c1ccccc1)C(=O)Nc1ccc(O)c(C(=O)O)c1 [NPC-14]	33.794 × 10^-7	91.036	0 O.D.	0.417 O.D.	0.016 O.D.	0.002 O.D.	0.001 O.D.
NCCCC[C@H](NC(=O)[C@H](Cc1ccccc1)NC(=O)[C@H](N)CCCCNS(=O)(=O)c1ccccc1)C(=O)Nc1ccc(O)c(C(=O)O)c1 [NPC-15]	37.927 × 10^-7	64.180	0 O.D.	0.480 O.D.	0.010 O.D.	0.002 O.D.	0 O.D.
